The target of data set [1] is T1, eqBChE (horse serum butyrylcholinesterase) (Equus caballus, UniProt P81908).
T1 construct: eqBChE (horse serum BChE); from tissue; host or cells: horse serum
Put plainly: biochemical. Conditions: for IC50: horse serum BChE, means ± SD of three measurements; for inhibition at 20 µM: read-out: inhibition percentage eqBChE. The method, then: (§1) The in vitro inhibitory activities of novel purine nucleosides 5-10, 12, 13 and 15, and 16 were evaluated against both heterologous (electric eel eeAChE, horse eqBChE) and human (recombinant) cholinesterases isoforms, by applying the Ellmann colorimetric assay, with slight modifications. […] The test compounds were assayed for their inhibitory activity toward eeAChE (electric eel AChE) and eqBChE (horse serum BChE), respectively, following Ellman’s method with modifications. […] AChE inhibitory activity was determined similarly by using a solution of AChE (0.9 U/mL in 0.1 M pH 8.0 phosphate buffer, PB) and acetylthiocholine iodide (ATC, 0.05 mM in 0.1 M pH 8.0 phosphate buffer, PB) as substrate. The inhibition data are reported as means of IC50’s determined at least in three independent measurements.

Data set [2] has as its target eeAChE (electric eel acetylcholinesterase) (Electrophorus electricus, UniProt O42275). In words: biochemical. Particulars: for IC50: Ellman assay, means ± SD of three measurements; for inhibition at 20 µM: read-out: inhibition percentage eeAChE, at 20 μM. How it is done: as §1
In general terms: DTNB colorimetry detects thiols as they appear.

Data set [3] is described as follows: UV-Visible chelating study, aluminum. Conditions: UV-Visible absorption. How it is done: (§2) The chelating activity of all purine nucleoside probes was evaluated by the UV-Visible method in order to determine compounds’ absorption spectra in the absence and in the presence of Cu^2+ at concentrations ranging from 1 μM to 10 μM. […] The resulting wavelength shift from λ = 280 to λ = 325 nm indicates a conformational rearrangement induced by interaction with Cu^2+.
(§3) UV-Visible spectroscopy offers the advantage of high sensitivity towards small changes that affect the electronic properties of ligand receptors, so absorption spectra of all reported compounds have been evaluated by recording UV-visible properties in subsequent conditions: 1.5 mL 1 × 10^−4M of the probe are added to 1.5 mL 2 × 10^−5M of each ion chloride salt’s solution (Copper Chloride (CuCl2), Zinc Chloride (ZnCl2), Iron (II) Chloride (FeCl2) and Aluminum Chloride (AlCl3)). A mixture of distilled water/DMSO 95:5 has been selected as a solvent for compounds 5–10 and 12. For compounds 14–16, the selected solvent was a mixture of distilled water/DMSO 90:10 due to poor water solubility. Furthermore, a titration assay of each compound has been carried out by adding increasing concentration of selected ion (final ion concentration = 1 µM, 2 µM, 3 µM, 5 µM, and 10 µM).

A short description of data set [4]: UV-Visible chelating study, iron. Particulars: UV-Visible absorption. The method, then:
as §2, §3

The target in data set [5] is hBChE (recombinant human isoform) (Homo sapiens, UniProt P06276). In words: biochemical. The format is biochemical. Conditions: for IC50: recombinant human isoform, means ± SD of three measurements. How it is done: (§4) The in vitro inhibitory activities of novel purine nucleosides 5-10, 12, 13 and 15, and 16 were evaluated against both heterologous (electric eel eeAChE, horse eqBChE) and human (recombinant) cholinesterases isoforms, by applying the Ellmann colorimetric assay, with slight modifications.
Sequence of hBChE (recombinant human isoform) (P06276 29-602): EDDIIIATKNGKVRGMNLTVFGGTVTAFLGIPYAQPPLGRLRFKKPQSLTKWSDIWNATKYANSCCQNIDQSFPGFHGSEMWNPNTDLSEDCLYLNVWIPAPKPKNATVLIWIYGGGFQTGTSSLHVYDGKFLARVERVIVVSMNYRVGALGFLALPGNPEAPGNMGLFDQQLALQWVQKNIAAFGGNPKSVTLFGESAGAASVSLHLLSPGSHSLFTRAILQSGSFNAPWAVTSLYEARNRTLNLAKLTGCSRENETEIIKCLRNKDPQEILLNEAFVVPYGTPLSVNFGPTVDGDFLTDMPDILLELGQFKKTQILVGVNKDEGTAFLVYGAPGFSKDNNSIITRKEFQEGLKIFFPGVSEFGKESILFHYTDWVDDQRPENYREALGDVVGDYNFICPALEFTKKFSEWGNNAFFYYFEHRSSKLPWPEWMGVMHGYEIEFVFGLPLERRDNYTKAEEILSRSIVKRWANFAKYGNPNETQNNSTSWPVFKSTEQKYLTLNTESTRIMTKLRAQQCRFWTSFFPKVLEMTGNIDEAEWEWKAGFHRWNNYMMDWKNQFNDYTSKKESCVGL
(§5) The test compounds were assayed for their inhibitory activity toward eeAChE (electric eel AChE) and eqBChE (horse serum BChE), respectively, following Ellman’s method with modifications. […] AChE inhibitory activity was determined similarly by using a solution of AChE (0.9 U/mL in 0.1 M pH 8.0 phosphate buffer, PB) and acetylthiocholine iodide (ATC, 0.05 mM in 0.1 M pH 8.0 phosphate buffer, PB) as substrate. The inhibition data are reported as means of IC50’s determined at least in three independent measurements.

The target of data set [6] is hAChE (recombinant human isoform) (Homo sapiens, UniProt P22303). Put plainly: biochemical. It counts as biochemical. Conditions: for IC50: recombinant human isoform, means ± SD of three measurements; for inhibition at 20 µM: read-out: inhibition percentage hAChE. How it is done: as §4, §5
Sequence of hAChE (recombinant human isoform) (P22303 32-614): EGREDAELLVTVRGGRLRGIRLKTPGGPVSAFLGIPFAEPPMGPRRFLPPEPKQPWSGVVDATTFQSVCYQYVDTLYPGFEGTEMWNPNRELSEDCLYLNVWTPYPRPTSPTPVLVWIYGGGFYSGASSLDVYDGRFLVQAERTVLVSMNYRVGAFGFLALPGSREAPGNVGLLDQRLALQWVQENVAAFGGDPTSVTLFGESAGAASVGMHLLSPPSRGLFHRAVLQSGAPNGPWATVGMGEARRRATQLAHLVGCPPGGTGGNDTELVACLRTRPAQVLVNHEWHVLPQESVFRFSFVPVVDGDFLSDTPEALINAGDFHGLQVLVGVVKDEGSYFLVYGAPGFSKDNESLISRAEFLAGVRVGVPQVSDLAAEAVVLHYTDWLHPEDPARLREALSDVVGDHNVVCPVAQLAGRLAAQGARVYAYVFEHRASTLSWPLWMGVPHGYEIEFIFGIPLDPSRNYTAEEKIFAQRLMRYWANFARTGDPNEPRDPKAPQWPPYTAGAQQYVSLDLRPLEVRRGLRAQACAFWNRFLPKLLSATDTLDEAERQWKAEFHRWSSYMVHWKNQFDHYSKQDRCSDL
Data set [7] in a line: UV-Visible chelating study, zinc. Particulars: UV-Visible absorption. The method, then: as §2, §3
Data set [8] is described as follows: Water solubility (qualitative remark). The format is physicochemical.
Data set [9] is described as follows: UV-Visible chelating study, copper. Conditions: ions Cu^2+, Zn^2+, Fe^2+, Al^3+ as chlorides, water/DMSO. The method, then:
as §2, §3

Data set [10] relates to brain AChE. Particulars: literature value determined for brain AChE; read-out: IC50 hAChE; cited from earlier work.
Data set [11] relates to serum BChE. Particulars: literature value determined for serum BChE; read-out: IC50 hBChE; cited from earlier work.
Where [12] appears, read: at 5 μM (lower water solubility), 5 µM.

The structures appear in SMILES notation. “And” between values parts separate entries of the source, which are not always exact repeats. Equal entries are not always repeated.

Sequence of eeAChE (electric eel acetylcholinesterase) (O42275 24-633): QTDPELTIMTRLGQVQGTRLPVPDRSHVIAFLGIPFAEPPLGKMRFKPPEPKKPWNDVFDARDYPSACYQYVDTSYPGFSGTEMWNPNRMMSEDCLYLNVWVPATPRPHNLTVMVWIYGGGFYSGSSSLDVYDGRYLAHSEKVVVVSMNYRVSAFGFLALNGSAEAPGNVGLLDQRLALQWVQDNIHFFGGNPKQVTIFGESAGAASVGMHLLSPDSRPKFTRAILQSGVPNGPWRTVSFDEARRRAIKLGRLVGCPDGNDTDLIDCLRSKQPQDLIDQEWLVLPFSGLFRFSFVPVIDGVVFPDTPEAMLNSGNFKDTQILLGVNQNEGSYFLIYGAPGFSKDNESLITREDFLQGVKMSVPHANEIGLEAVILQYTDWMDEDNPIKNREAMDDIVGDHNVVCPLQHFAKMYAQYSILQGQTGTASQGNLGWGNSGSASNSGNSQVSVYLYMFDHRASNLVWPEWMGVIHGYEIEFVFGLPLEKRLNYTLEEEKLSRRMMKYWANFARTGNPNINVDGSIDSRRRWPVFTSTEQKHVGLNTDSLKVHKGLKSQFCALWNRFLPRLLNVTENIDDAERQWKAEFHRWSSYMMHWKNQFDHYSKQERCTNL
T1 sequence (P81908 whole entry): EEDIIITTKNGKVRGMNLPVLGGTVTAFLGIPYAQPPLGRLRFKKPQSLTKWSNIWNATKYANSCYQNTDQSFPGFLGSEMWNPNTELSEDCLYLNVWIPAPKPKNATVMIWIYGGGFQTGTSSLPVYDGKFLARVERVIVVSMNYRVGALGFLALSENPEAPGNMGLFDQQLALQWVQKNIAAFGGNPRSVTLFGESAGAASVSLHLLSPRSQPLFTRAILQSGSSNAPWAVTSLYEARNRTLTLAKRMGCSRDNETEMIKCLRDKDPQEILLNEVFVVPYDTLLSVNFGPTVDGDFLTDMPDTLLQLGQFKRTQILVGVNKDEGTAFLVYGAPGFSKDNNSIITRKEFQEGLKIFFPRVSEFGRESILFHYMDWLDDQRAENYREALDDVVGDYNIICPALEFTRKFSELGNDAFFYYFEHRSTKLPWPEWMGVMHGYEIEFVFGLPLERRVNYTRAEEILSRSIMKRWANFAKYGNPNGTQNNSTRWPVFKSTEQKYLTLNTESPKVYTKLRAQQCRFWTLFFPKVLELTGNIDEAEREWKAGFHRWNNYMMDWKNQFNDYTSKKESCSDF

In the case of `CC(=O)Nc1nc(Cl)c2c(ncn2[C@H]2O[C@H](COCc3ccccc3)[C@@H](OCc3ccccc3)[C@H](OCc3ccccc3)[C@@H]2OCc2ccccc2)n1` [Compound 2, reference compound], the IC50 in data set [1] came to 0.05 ± 0.01 µM; in [2], 18.1 ± 4.8 µM.

Turning to `C[C@@H]1O[C@@H](n2cnc3c(NC(=O)c4ccccc4)ncnc32)[C@H](OCc2ccccc2)[C@H](OCc2ccccc2)[C@H]1OCc1ccccc1` [Compound 15, 6-benzamido-9-(6-deoxy-2,3,4-tri-O-benzyl-α-L-mannopyranosyl)purine], in data set [3], the “interaction with aluminum ion, result in words” value is listed as “no relevant interaction”. In addition, in [4], the “interaction with iron ion, result in words” value is recorded as “no relevant interaction”. In addition, the 50% inhibitory concentration (IC50) in data set [5], in data set [6], in [1] and in data set [2] was more than 5 µM in each case. Also, the “inhibition percentage hAChE” value in [6] (setting [12]) is 28 ± 3%. In data set [7], the “interaction with zinc ion, result in words” value is listed as “no relevant interaction”. For the same compound, the “water solubility, in words” value in [8] is listed as “dramatic reduction of aqueous solubility”. Besides, the “chelating activity / metal selectivity, result in words” value (from here on “chelating activity / metal selectivity”) in data set [9] is “selective copper chelator”. The inhibition at 5 µM in data set [2] (read-out: inhibition percentage eeAChE, at 5 μM (lower water solubility)) is not above 50%.

Turning to `O=C(Nc1ncnc2c1ncn2[C@@H]1O[C@H](COCc2ccccc2)[C@@H](OCc2ccccc2)[C@H](OCc2ccccc2)[C@@H]1OCc1ccccc1)c1ccccc1` [Compound 6, 6-benzamido-9-(2,3,4,6-tetra-O-benzyl-β-D-mannopyranosyl)purine], the IC50 in data set [5] was 4.6 µM and 4.58 µM; in data set [6] it was 17 ± 0.75 µM; in data set [1] it was 4.3 µM and 4.29 µM; in data set [2], 10.6 ± 1.1 µM.

As to `CC(=O)O[C@@H]1[C@@H](OC(C)=O)[C@H](C)O[C@@H](n2cnc3c(NC(=O)c4ccccc4)ncnc32)[C@@H]1OC(C)=O` [Compound 12, 6-benzamido-9-(6-deoxy-2,3,4-tri-O-acetyl-α-L-mannopyranosyl)purine], the “hBChE inhibition, result in words” value in [5] is on record as “not active”. In data set [6], the “hAChE inhibition, result in words” value is listed as “not active”. Besides, in [9], the “chelating activity / metal selectivity” value was “selective Cu^2+ chelating agents”. In addition, in data set [1], the “eqBChE inhibition, result in words” value is “not active”; the inhibition at 20 µM came to 5%; the 50% inhibitory concentration (IC50) was more than 20 µM. Besides, in data set [2], the “eeAChE inhibition, result in words” value is listed as “not active”; the 50% inhibitory concentration (IC50) is more than 20 µM; the inhibition at 20 µM is 8%.

In the case of `O=C(Nc1ncnc2ncn([C@H]3O[C@H](COCc4ccccc4)[C@@H](OCc4ccccc4)[C@H](OCc4ccccc4)[C@@H]3OCc3ccccc3)c12)c1ccccc1` [Compound 7, 6-benzamido-7-(2,3,4,6-tetra-O-benzyl-α-D-mannopyranosyl)purine], in [1], the “eqBChE inhibition, result in words” value is “selective” and the 50% inhibitory concentration (IC50) is 10 ± 1.1 µM. In data set [2], this compound showed a concentration for half-maximal inhibition (IC50) of more than 20 µM.

Take `O=C(Nc1ncnc2ncn([C@@H]3O[C@H](COCc4ccccc4)[C@@H](OCc4ccccc4)[C@H](OCc4ccccc4)[C@@H]3OCc3ccccc3)c12)c1ccccc1` [Compound 8, 6-benzamido-7-(2,3,4,6-tetra-O-benzyl-β-D-mannopyranosyl)purine]: the IC50 is 4.6 µM and 4.55 µM in data set [5]; 4.8 µM and 4.81 µM in data set [6]; 4.4 ± 1.3 µM in data set [1]; 2.6 µM and 2.61 µM in [2].

Take `Clc1ncnc2c1ncn2[C@H]1O[C@H](COCc2ccccc2)[C@@H](OCc2ccccc2)[C@H](OCc2ccccc2)[C@@H]1OCc1ccccc1` [Compound 1, 6-chloro-9-(2,3,4,6-tetra-O-benzyl-α-D-mannopyranosyl)purine, reference compound]: the values for the 50% inhibitory concentration (IC50) in [1] and in data set [2] were 2.8 ± 0.3 µM and 2.4 ± 0.3 µM, respectively.

As to `C[C@H]1O[C@@H](n2cnc3c(NC(=O)c4ccccc4)ncnc32)[C@@H](OCc2ccccc2)[C@@H](OCc2ccccc2)[C@@H]1OCc1ccccc1` [Compound 10, 6-benzamido-9-(6-deoxy-2,3,4-tri-O-benzyl-β-D-mannopyranosyl)purine], the IC50 in data set [5] turned out to be 8.7 ± 1.35 µM; in data set [6] it was 17.8 ± 2.2 µM; in [1] it was 11.7 ± 1.2 µM; in data set [2], 15 ± 2.1 µM. For the same compound, in data set [1], the “eqBChE inhibition, result in words” value is reported as “moderate inhibition”.

With `C[C@H]1O[C@H](n2cnc3c(NC(=O)c4ccccc4)ncnc32)[C@@H](OCc2ccccc2)[C@@H](OCc2ccccc2)[C@@H]1OCc1ccccc1` [Compound 9, 6-benzamido-9-(6-deoxy-2,3,4-tri-O-benzyl-α-D-mannopyranosyl)purine], in data set [5], the “hBChE inhibition, result in words” value is recorded as “selective inhibitor” and the 50% inhibitory concentration (IC50) was determined as 15.4 ± 1.1 µM. Moreover, in data set [6], the inhibition at 20 µM was determined as 25% and the IC50 is more than 20 µM. For the same compound, in [1], the inhibition at 20 µM was 28% and the half-maximal inhibitory concentration (IC50) is more than 20 µM. For the same compound, in data set [2], the “eeAChE inhibition, result in words” value is reported as “selective inhibitor”; the half-inhibitory concentration (IC50) is 4.7 µM and 4.69 µM.

In the case of `O=C(Nc1ncnc2c1ncn2[C@H]1O[C@H](COCc2ccccc2)[C@@H](OCc2ccccc2)[C@H](OCc2ccccc2)[C@@H]1OCc1ccccc1)c1ccccc1` [Compound 5, 6-benzamido-9-(2,3,4,6-tetra-O-benzyl-α-D-mannopyranosyl)purine], in data set [1], the inhibition at 20 µM is 11% and the 50% inhibitory concentration (IC50) was more than 20 µM. For the same compound, in [2], the concentration for half-maximal inhibition (IC50) is more than 20 µM and the inhibition at 20 µM was found to be 25%.

As for `C[C@@H]1O[C@H](n2cnc3c(NC(=O)c4ccccc4)ncnc32)[C@H](OCc2ccccc2)[C@H](OCc2ccccc2)[C@H]1OCc1ccccc1` [Compound 16, 6-benzamido-9-(6-deoxy-2,3,4-tri-O-benzyl-β-L-mannopyranosyl)purine], the “inhibition percentage hBChE” value in data set [5] (setting [12]) is 30 ± 7%. The inhibition at 5 µM in data set [5] (at 5 μM (lower water solubility), read-out: inhibition percentage hBChE) was less than 50%. Also, the IC50 in data set [5], in data set [6], in data set [1] and in data set [2] was more than 5 µM in each case. Also, in data set [8], the “water solubility, in words” value is “dramatic reduction of aqueous solubility”. For the same compound, the “chelating activity / metal selectivity” value in [9] was “non-selective chelator”.

As for `C[C@@H]1O[C@@H](n2cnc3c(N(Cc4ccccc4)C(=O)c4ccccc4)ncnc32)[C@H](OCc2ccccc2)[C@H](OCc2ccccc2)[C@H]1OCc1ccccc1` [Compound 13, 6-benzamido-N-benzyl-9-(6-deoxy-2,3,4-tri-O-benzyl-α-L-mannopyranosyl)purine], in data set [3], the “interaction with aluminum ion, result in words” value was “did not show chelating activity”. In addition, in data set [4], the “interaction with iron ion, result in words” value is listed as “did not show chelating activity”. In data set [5], the “hBChE inhibition, result in words” value is given as “no activity” and the IC50 was more than 20 µM. In addition, the inhibition at 20 µM in data set [5] (at 20 μM, read-out: inhibition percentage hBChE) turned out to be 25%. In addition, in [6], the “hAChE inhibition, result in words” value was “no activity”; the inhibition at 20 µM was 8%; the IC50 was more than 20 µM. In addition, the “interaction with zinc ion, result in words” value in data set [7] is “did not show chelating activity”. For the same compound, the “chelating activity / metal selectivity” value in data set [9] is reported as “did not show chelating activity”. Further, in data set [1], the “eqBChE inhibition, result in words” value is recorded as “selective”; the IC50 is 5.1 µM and 5.12 µM. Moreover, in data set [2], the half-inhibitory concentration (IC50) was more than 20 µM and the inhibition at 20 µM amounted to 6%.

For `COc1ccc2c3c1O[C@H]1C[C@@H](O)C=C[C@@]31CCN(C)C2` [Galantamine], the IC50 in data set [10] is 5 ± 0.071 µM; in data set [11], 59.2 ± 1.7 µM.

For orientation: IC50 means the concentration needed to halve the response being measured. Usually inhibition stands for how much of the control response was suppressed.

(Values after article PMC9864808, “Exploring Mannosylpurines as Copper Chelators and Cholinesterase Inhibitors with Potential for Alzheimer’s Disease” (Pharmaceuticals, 2022).)
